From ChEMBL document CHEMBL5058643, “Data for DCP probe BI-2081” (2022)

Key:
[1] = molecular target: Cannabinoid receptor 1 (Homo sapiens) (UniProt P21554); test: CB1 Eurofins SafetyScreen44 (BI); details: Compound concentration 10.0 uM
[2] = molecular target: Androgen receptor (Rattus norvegicus) (UniProt P15207); test: TESTOST/RA Eurofins SafetyScreen44 (BI); details: Compound concentration 10.0 uM
[3] = molecular target: T1, Alpha-1D adrenergic receptor (Homo sapiens) (UniProt P25100); test: ALPHA1D/H Eurofins SafetyScreen44 (BI); details: Compound concentration 10.0 uM
T1 sequence (whole entry): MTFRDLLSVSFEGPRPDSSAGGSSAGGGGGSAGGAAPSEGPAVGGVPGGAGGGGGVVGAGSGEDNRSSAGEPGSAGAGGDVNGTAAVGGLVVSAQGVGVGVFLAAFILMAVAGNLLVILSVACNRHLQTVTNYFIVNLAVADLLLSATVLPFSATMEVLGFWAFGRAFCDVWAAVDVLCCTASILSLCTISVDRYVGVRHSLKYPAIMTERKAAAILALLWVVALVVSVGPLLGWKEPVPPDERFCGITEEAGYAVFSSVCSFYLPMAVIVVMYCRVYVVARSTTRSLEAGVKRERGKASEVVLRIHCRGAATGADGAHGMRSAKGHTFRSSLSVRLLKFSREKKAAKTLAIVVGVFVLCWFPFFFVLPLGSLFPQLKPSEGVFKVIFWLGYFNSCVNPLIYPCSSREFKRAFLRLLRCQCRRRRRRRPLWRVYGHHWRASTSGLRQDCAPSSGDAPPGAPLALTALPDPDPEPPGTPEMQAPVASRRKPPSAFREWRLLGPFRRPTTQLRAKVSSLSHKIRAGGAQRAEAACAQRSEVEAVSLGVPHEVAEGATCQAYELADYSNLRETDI

[4] = molecular target: Endothelin-1 receptor (Homo sapiens) (UniProt P25101); test: ETA/HU Eurofins SafetyScreen44 (BI); details: Compound concentration 10.0 uM
[5] = molecular target: Neuropeptide Y receptor type 2 (Homo sapiens) (UniProt P49146); test: Y2/HU Eurofins SafetyScreen44 (BI); details: Compound concentration 10.0 uM
[6] = molecular target: Sodium- and chloride-dependent GABA transporter 1 (Rattus norvegicus) (UniProt P23978); test: GABATRANS/RA Eurofins SafetyScreen44 (BI); details: Compound concentration 10.0 uM
[7] = tested on: imidazoline I2 receptor (Rattus norvegicus); test: I2/CENTR/R Eurofins SafetyScreen44 (BI); details: Compound concentration 10.0 uM
[8] = molecular target: Protein kinase C alpha type (Mus musculus) (UniProt P20444); test: PHORBOLE/M Eurofins SafetyScreen44 (BI); details: Compound concentration 10.0 uM
[9] = molecular target: Melatonin receptor type 1A (Homo sapiens) (UniProt P48039); test: MT1/H Eurofins SafetyScreen44 (BI); details: Compound concentration 10.0 uM
[10] = molecular target: Adenosine receptor A2a (Homo sapiens) (UniProt P29274); test: A2A/HU Eurofins SafetyScreen44 (BI); details: Compound concentration 10.0 uM
[11] = molecular target: Beta-1 adrenergic receptor (Homo sapiens) (UniProt P08588); test: BETA1/HU Eurofins SafetyScreen44 (BI); details: Compound concentration 10.0 uM
[12] = molecular target: B2 bradykinin receptor (Homo sapiens) (UniProt P30411); test: B2/H Eurofins SafetyScreen44 (BI); details: filed as antagonist, Compound concentration 10.0 uM
[13] = molecular target: Histamine H3 receptor (Homo sapiens) (UniProt Q9Y5N1); test: H3/H Eurofins SafetyScreen44 (BI); details: Compound concentration 10.0 uM
[14] = molecular target: Peroxisome proliferator-activated receptor gamma (Homo sapiens) (UniProt P37231); test: PPARG/H AG Eurofins SafetyScreen44 (BI); details: filed as agonist, Compound concentration 10.0 uM
[15] = molecular target: Nicotinic acetylcholine receptor alpha-1/beta-1 (Homo sapiens) (UniProt P02708+P11230); test: NACH_BS_N/H Eurofins SafetyScreen44 (BI); format: protein-complex assay; details: Compound concentration 10.0 uM
[16] = molecular target: Cysteinyl leukotriene receptor 1 (Homo sapiens) (UniProt Q9Y271); test: CYSLT1_HS Eurofins SafetyScreen44 (BI); details: Compound concentration 10.0 uM
[17] = molecular target: D(2) dopamine receptor (Homo sapiens) (UniProt P14416); test: D2S/HU Eurofins SafetyScreen44 (BI); details: Compound concentration 10.0 uM
[18] = molecular target: Epidermal growth factor receptor (Homo sapiens) (UniProt P00533); test: EGF/HU Eurofins SafetyScreen44 (BI); details: Compound concentration 10.0 uM
[19] = molecular target: Mu-type opioid receptor (Homo sapiens) (UniProt P35372); test: MU/HU Eurofins SafetyScreen44 (BI); details: Compound concentration 10.0 uM
[20] = molecular target: Glutamate receptor ionotropic, NMDA 1 (Rattus norvegicus) (UniProt P35439); test: NMDAGLSI/RA Eurofins SafetyScreen44 (BI); details: Compound concentration 10.0 uM
[21] = molecular target: ATP-sensitive inward rectifier potassium channel 1 isoform X1 (Mesocricetus auratus) (UniProt A0A1U8CU73); test: K+/KATP/HA Eurofins SafetyScreen44 (BI); details: Cricetinae; Compound concentration 10.0 uM
[22] = molecular target: Beta-2 adrenergic receptor (Homo sapiens) (UniProt P07550); test: BETA2/HU Eurofins SafetyScreen44 (BI); details: Compound concentration 10.0 uM
[23] = molecular target: Platelet-activating factor receptor (Homo sapiens) (UniProt P25105); test: PAF/H Eurofins SafetyScreen44 (BI); details: Compound concentration 10.0 uM
[24] = molecular target: MAO-A (amine oxidase [flavin-containing] A) (Rattus norvegicus, UniProt P21396); test: MAO-A_ANTAG Eurofins SafetyScreen44 (BI); design: mode of action antagonist; scale not given: the % may be the effect or the level left; details: compound concentration 10 uM, read-out: % Ctrl
[25] = molecular target: Muscarinic acetylcholine receptor M3 (Homo sapiens, UniProt P20309); test: M3/H Eurofins SafetyScreen44 (BI); details: Compound concentration 10.0 uM
[26] = molecular target: T2, 5-hydroxytryptamine receptor 1A (Homo sapiens) (UniProt P08908); test: 5HT1A/H Eurofins SafetyScreen44 (BI); details: Compound concentration 10.0 uM
T2 sequence (whole entry): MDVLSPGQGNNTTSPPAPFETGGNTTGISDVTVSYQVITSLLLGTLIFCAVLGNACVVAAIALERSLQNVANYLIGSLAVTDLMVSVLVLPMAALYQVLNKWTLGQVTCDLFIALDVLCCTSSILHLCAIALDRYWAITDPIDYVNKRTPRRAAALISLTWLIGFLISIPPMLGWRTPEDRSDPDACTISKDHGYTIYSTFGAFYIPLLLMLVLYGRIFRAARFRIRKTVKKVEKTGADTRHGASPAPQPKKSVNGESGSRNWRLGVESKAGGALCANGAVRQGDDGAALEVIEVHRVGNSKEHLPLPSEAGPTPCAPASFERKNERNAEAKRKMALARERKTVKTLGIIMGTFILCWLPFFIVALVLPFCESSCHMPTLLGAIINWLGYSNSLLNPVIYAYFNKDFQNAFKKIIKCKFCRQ

[27] = molecular target: Beta-1 adrenergic receptor (Homo sapiens) (UniProt P08588); test: BETA1/HUM Eurofins SafetyScreen44 (BI); details: Compound concentration 10.0 uM
[28] = molecular target: Histamine H2 receptor (Homo sapiens) (UniProt P25021); test: H2/APT/HS Eurofins SafetyScreen44 (BI); details: filed as antagonist, Compound concentration 10.0 uM
[29] = molecular target: 3',5'-cyclic-AMP phosphodiesterase 4D (Homo sapiens) (UniProt Q08499); test: PDE4D2 Eurofins SafetyScreen44 (BI); details: Compound concentration 10.0 uM
[30] = molecular target: Muscarinic acetylcholine receptor M4 (Homo sapiens) (UniProt P08173); details: Compound concentration 10.0 uM
[31] = molecular target: Voltage-dependent L-type calcium channel subunit alpha-1C (dihydropyridine site) (Rattus norvegicus, UniProt P22002); test: CA+/DHPSI/R Eurofins SafetyScreen44 (BI); design: mode of action inhibitor; details: rat brain, probe [3H](+)PN200-110, compound concentration 10 uM, read-out: % Ctrl

Sequence of Beta-1 adrenergic receptor (Homo sapiens) (P08588 whole entry, looked up): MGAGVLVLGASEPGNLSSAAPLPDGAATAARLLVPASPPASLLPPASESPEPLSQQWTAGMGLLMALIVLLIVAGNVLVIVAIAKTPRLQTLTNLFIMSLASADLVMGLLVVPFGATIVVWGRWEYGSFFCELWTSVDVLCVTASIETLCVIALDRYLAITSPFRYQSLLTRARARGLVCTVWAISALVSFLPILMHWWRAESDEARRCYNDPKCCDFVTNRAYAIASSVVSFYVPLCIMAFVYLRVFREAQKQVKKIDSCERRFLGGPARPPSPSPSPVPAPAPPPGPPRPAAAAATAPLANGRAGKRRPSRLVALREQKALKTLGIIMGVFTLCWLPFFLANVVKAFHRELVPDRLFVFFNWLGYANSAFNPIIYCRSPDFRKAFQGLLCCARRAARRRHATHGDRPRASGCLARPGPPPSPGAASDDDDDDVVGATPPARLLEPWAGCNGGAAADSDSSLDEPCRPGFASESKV
Sequence of Muscarinic acetylcholine receptor M4 (Homo sapiens) (P08173 whole entry): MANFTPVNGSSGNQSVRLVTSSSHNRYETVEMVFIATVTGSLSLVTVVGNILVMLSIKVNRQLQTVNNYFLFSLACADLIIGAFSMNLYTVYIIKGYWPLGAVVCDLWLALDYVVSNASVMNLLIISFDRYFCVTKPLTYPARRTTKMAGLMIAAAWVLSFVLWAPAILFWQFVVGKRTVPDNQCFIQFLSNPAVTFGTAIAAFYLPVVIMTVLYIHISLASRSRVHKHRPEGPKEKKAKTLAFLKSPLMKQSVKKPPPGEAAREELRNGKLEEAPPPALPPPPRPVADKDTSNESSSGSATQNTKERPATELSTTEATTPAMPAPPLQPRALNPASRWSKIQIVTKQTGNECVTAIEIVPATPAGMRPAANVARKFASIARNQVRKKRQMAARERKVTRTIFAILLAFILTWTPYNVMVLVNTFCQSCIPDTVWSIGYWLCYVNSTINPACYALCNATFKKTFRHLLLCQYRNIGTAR
Sequence of Cannabinoid receptor 1 (Homo sapiens) (P21554 whole entry): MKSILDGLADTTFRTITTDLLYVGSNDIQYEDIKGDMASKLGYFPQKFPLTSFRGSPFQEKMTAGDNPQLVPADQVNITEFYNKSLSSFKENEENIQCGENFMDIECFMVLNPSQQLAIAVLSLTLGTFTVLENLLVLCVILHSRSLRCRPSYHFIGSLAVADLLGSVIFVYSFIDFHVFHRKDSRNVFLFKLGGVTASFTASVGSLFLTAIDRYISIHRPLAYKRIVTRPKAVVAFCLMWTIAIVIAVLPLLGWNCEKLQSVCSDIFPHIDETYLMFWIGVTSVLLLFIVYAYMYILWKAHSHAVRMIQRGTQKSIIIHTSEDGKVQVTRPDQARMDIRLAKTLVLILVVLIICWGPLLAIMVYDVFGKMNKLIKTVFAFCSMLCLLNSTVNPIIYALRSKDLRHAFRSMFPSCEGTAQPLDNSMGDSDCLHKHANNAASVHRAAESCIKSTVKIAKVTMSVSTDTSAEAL
Sequence of Histamine H3 receptor (Homo sapiens) (Q9Y5N1 whole entry): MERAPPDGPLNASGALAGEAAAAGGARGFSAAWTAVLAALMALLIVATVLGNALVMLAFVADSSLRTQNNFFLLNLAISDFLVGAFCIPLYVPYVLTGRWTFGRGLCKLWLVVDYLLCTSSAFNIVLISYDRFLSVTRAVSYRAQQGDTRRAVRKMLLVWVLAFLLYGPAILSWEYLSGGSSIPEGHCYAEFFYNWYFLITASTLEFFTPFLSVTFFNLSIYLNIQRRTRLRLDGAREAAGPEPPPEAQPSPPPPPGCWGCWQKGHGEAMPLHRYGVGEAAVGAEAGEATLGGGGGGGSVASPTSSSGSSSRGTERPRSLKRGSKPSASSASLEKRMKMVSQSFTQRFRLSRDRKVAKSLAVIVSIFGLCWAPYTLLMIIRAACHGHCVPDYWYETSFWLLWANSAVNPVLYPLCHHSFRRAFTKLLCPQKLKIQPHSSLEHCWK
Sequence of ATP-sensitive inward rectifier potassium channel 1 isoform X1 (Mesocricetus auratus) (A0A1U8CU73 as listed by the source): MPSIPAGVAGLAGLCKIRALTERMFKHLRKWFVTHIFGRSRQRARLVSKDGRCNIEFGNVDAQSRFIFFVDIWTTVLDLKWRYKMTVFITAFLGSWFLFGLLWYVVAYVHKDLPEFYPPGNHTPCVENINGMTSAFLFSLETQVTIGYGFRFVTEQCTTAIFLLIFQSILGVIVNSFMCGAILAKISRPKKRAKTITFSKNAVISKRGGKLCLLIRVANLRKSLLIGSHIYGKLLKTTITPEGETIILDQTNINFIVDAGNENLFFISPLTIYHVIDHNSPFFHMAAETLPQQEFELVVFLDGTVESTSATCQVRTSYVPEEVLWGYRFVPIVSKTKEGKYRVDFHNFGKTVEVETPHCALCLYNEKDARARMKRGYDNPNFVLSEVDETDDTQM
Sequence of Beta-2 adrenergic receptor (Homo sapiens) (P07550 whole entry, looked up): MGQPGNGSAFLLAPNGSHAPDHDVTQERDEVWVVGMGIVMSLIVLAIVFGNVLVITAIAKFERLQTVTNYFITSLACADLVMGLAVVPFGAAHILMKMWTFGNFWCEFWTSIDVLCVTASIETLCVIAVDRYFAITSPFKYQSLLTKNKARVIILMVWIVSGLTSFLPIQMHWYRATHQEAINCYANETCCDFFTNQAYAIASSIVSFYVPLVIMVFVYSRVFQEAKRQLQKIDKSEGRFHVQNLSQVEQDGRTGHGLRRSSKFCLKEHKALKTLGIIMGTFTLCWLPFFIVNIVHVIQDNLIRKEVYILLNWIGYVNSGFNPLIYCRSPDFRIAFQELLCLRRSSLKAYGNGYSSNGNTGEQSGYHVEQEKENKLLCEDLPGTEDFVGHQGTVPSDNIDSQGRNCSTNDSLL
Sequence of Histamine H2 receptor (Homo sapiens) (P25021 whole entry): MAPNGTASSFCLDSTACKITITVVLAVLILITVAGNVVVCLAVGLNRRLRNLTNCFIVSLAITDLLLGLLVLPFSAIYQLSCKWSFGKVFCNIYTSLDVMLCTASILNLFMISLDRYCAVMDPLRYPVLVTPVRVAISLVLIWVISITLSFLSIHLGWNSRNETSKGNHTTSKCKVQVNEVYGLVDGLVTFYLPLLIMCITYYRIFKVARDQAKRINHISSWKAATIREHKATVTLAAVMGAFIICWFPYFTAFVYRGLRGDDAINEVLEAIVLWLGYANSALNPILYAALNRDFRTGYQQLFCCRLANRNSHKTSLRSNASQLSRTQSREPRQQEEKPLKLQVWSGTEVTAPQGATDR
Sequence of Androgen receptor (Rattus norvegicus) (P15207 whole entry S389L): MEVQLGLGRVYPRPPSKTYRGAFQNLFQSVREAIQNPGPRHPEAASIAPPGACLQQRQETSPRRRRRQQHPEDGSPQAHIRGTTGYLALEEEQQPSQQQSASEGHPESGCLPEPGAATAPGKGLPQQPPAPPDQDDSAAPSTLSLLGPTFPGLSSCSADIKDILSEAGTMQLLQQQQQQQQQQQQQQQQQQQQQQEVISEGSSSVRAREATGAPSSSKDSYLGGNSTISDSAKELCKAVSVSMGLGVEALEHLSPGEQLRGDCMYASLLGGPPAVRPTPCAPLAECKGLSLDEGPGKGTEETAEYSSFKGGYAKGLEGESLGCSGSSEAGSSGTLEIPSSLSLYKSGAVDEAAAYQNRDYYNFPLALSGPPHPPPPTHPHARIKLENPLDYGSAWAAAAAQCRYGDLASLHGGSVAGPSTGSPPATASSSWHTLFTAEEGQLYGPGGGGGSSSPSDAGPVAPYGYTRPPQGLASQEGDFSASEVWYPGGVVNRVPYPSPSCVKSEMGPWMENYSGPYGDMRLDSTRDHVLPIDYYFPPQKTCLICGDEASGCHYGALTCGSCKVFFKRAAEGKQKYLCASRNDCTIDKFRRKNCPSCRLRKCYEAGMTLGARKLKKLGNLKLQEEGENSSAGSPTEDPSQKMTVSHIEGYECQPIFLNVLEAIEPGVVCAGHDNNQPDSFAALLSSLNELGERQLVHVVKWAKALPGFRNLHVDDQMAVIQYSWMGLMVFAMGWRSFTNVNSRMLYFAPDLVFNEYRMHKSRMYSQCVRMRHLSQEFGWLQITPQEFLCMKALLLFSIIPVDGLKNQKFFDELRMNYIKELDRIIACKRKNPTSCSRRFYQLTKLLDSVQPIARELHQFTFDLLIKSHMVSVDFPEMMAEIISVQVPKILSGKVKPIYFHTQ
Sequence of D(2) dopamine receptor (Homo sapiens) (P14416 whole entry): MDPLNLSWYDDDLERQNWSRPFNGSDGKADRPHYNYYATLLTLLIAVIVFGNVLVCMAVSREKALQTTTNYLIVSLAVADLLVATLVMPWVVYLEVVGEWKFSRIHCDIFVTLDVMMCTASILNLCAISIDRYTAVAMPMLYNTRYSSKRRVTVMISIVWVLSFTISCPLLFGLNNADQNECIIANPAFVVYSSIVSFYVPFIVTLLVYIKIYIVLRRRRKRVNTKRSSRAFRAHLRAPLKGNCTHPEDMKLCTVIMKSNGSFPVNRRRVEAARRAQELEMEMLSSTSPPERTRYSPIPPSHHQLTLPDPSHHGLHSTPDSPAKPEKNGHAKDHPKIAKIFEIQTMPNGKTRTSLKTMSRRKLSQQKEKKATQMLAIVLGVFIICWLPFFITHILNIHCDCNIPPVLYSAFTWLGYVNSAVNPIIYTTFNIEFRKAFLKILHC
Sequence of Muscarinic acetylcholine receptor M3 (P20309 whole entry, looked up): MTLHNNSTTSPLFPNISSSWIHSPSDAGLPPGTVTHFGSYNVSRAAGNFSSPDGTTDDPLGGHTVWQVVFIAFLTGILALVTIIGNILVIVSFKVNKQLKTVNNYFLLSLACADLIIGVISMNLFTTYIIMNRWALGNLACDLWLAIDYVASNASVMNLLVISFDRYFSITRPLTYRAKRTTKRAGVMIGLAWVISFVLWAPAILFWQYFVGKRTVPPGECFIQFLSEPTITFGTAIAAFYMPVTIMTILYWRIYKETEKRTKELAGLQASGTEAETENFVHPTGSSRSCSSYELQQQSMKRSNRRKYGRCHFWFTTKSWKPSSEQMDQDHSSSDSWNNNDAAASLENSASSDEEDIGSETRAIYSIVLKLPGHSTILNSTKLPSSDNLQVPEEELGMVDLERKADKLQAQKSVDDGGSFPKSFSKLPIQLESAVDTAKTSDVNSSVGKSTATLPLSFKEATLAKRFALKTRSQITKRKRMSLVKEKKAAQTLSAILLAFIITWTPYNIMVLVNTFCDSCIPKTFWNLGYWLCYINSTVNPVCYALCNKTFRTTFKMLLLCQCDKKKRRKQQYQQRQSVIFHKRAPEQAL

Cc1cc(OCCC(C)(C)O)cc(C)c1-c1ccc(F)c2c1CC[C@H]2Oc1ccc2c(c1)OC[C@H]2CC(=O)O
residual activity [1]: 100%
residual activity [2]: 75%
residual activity [3]: 85%
residual activity [4]: 91%
residual activity [5]: 99%
residual activity [6]: 88%
residual activity [7]: 86%
residual activity [8]: 84%
residual activity [9]: 98%
residual activity [10]: 125%
residual activity [11]: 98%
residual activity [12]: 103%
residual activity [13]: 111%
residual activity [14]: 8%
residual activity [15]: 84%
residual activity [16]: 31%
residual activity [17]: 100%
residual activity [18]: 99%
residual activity [19]: 76%
residual activity [20]: 86%
residual activity [21]: 95%
residual activity [22]: 109%
residual activity [23]: 97%

COCCCS(=O)(=O)c1cc(C)c(-c2ccc(F)c3c2CC[C@H]3Oc2ccc3c(c2)OC[C@H]3CC(=O)O)c(C)c1
activity at 10 µM [24]: 94% (not active)
residual activity [25]: 95%
residual activity [26]: 103%
residual activity [27]: 88%
residual activity [28]: 93%
residual activity [29]: 103%
inhibition [30]: -8.43%
activity at 10 µM [31]: 90% (not active)
